In ChEMBL document CHEMBL4400559, “Exploiting the furo[2,3-b]pyridine core against multidrug-resistant Mycobacterium tuberculosis” (Bioorg Med Chem Lett, 2019):
≈ marks a conversion by molar mass, not a printed value.

What was measured:
Assay type in all cases: functional
[1] = test system: Mycobacterium tuberculosis; experiment: Antibacterial activity against drug-resistant Mycobacterium tuberculosis isolate 5 after 7 days by resazurin microtiter assay; conditions: isolate 5, 168 h
[2] = test system: Mycobacterium tuberculosis; experiment: Antibacterial activity against drug-resistant Mycobacterium tuberculosis isolate 4 after 7 days by resazurin microtiter assay; conditions: isolate 4, 168 h
[3] = test system: Mycobacterium tuberculosis; experiment: Antibacterial activity against drug-resistant Mycobacterium tuberculosis isolate 3 after 7 days by resazurin microtiter assay; conditions: isolate 3, 168 h
[4] = test system: Mycobacterium tuberculosis; experiment: Antibacterial activity against drug-resistant Mycobacterium tuberculosis isolate 2 after 7 days by resazurin microtiter assay; conditions: isolate 2, 168 h
[5] = test system: Mycobacterium tuberculosis; experiment: Antibacterial activity against drug-resistant Mycobacterium tuberculosis isolate 1 after 7 days by resazurin microtiter assay; conditions: isolate 1, 168 h

SMILES	MIC [1] [µM]	MIC [2] [µM]	MIC [3] [µM]	MIC [4] [µM]	MIC [5] [µM]
CCOC(=O)c1c(C)oc2nc(N3CCCC3)ccc12	16.6 (≈ 4.55 µg/mL)	15.8 (≈ 4.33 µg/mL)	9.3 (≈ 2.55 µg/mL)	20.2 (≈ 5.54 µg/mL)	18.1 (≈ 4.97 µg/mL)
CCCCNc1ccc2c(C(=O)OCC)c(C(C)C)oc2n1	> 82.2	> 82.2	> 82.2	> 82.2	> 82.2
NCC[C@H](O)C(=O)N[C@@H]1C[C@H](N)[C@@H](O[C@H]2O[C@H](CN)[C@@H](O)[C@H](O)[C@H]2O)[C@H](O)[C@H]1O[C@H]1O[C@H](CO)[C@@H](O)[C@H](N)[C@H]1O [AMIKACIN]	1.7 (≈ 0.996 µg/mL)	0.7 (≈ 0.41 µg/mL)	0.4 (≈ 0.234 µg/mL)	1.6 (≈ 0.937 µg/mL)	0.4 (≈ 0.234 µg/mL)
N[C@@H]1CONC1=O [CYCLOSERINE]	196 (≈ 20.1 µg/mL)	167 (≈ 17 µg/mL)	> 245	121 (≈ 12.3 µg/mL)	242 (≈ 24.7 µg/mL)
CC[C@@H](CO)NCCN[C@@H](CC)CO [ETHAMBUTOL]	> 122	> 122	> 122	> 122	> 122
NNC(=O)c1ccncc1 [ISONIAZID]	> 182	> 182	> 182	> 182	> 182
COc1c(N2C[C@@H]3CCCN[C@@H]3C2)c(F)cc2c(=O)c(C(=O)O)cn(C3CC3)c12 [MOXIFLOXACIN]	0.4 (≈ 0.161 µg/mL)	1.4 (≈ 0.562 µg/mL)	0.5 (≈ 0.201 µg/mL)	0.7 (≈ 0.281 µg/mL)	0.3 (≈ 0.12 µg/mL)
CO[C@H]1/C=C/O[C@@]2(C)Oc3c(C)c(O)c4c(O)c(c(/C=N/N5CCN(C)CC5)c(O)c4c3C2=O)NC(=O)/C(C)=C\C=C\[C@H](C)[C@H](O)[C@@H](C)[C@@H](O)[C@@H](C)[C@H](OC(C)=O)[C@@H]1C [RIFAMPIN]	> 30.4	> 30.4	> 30.4	> 30.4	
